Results taken from article PMC4109836, “Analysis of the co-operative interaction between the allosterically regulated proteins GK and GKRP using tryptophan fluorescence” (Biochemical Journal, 2014).

T1: GKRP-WT (Homo sapiens, UniProt Q14397)
T1 construct: FLAG; made in house; host or cells: Escherichia coli
T1 sequence (Q14397 1-625): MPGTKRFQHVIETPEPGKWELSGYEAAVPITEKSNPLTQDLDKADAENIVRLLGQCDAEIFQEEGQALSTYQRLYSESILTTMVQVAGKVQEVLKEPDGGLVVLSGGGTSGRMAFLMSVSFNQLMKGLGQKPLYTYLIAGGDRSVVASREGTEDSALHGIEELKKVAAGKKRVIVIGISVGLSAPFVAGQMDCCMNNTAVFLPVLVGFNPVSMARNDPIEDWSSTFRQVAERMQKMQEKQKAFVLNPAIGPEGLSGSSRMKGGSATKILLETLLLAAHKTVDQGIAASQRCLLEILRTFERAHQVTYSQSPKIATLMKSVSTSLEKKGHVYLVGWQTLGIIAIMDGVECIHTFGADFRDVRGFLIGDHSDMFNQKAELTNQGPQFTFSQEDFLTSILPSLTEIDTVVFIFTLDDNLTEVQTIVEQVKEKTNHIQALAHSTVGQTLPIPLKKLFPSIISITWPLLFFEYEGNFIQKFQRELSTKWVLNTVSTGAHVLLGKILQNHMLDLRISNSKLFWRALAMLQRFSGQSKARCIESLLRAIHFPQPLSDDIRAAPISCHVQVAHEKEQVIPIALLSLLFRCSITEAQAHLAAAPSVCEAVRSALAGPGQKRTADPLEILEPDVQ

T2: GKRP-P446L (Homo sapiens, UniProt Q14397, P446L)
T2 construct: FLAG; made in house; host or cells: Escherichia coli
T2 sequence (Q14397 1-625 P446L): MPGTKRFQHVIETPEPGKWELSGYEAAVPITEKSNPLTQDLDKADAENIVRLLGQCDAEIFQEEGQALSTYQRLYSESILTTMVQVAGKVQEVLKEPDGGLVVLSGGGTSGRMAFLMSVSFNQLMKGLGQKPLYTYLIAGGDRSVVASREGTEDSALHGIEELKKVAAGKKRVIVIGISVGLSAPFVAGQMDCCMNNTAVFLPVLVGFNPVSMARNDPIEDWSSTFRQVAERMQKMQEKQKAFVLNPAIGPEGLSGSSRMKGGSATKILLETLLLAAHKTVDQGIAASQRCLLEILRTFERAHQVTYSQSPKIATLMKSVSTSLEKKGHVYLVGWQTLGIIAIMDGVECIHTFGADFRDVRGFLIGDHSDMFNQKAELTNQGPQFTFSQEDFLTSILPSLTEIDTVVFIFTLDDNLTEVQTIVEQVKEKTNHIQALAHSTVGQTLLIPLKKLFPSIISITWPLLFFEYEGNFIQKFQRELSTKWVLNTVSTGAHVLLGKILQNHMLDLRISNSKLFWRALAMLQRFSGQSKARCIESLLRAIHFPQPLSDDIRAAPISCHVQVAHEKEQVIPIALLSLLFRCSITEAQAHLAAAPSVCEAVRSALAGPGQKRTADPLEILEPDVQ

T3: hGKRP (0.3 μM)–GK-W99R/W167F/W257F (1 μM) complex, GKRP-WT (Homo sapiens, UniProt P35557+Q14397, W167F/W257F/W99R)
T3 construct: FLAG; GST (cleaved yes); made in house; host or cells: Escherichia coli
T3 sequence (Q14397 1-625): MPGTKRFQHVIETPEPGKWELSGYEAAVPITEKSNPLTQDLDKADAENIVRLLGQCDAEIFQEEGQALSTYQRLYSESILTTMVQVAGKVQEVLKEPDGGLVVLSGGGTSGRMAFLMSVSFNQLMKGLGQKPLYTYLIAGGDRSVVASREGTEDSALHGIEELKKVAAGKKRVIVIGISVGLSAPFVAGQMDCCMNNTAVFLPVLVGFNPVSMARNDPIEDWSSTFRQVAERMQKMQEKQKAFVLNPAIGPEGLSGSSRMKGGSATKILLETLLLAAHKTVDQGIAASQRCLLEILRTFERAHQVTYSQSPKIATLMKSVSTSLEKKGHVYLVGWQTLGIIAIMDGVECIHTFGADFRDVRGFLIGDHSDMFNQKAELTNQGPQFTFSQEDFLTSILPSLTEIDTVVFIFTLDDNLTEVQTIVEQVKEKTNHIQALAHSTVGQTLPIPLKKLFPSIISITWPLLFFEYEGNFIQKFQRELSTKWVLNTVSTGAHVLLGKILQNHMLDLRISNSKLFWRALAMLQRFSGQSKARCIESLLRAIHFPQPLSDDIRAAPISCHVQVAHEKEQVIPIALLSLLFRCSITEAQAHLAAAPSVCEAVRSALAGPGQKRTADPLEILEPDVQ
T3 sequence (P35557 1-465 W99R/W167F/W257F): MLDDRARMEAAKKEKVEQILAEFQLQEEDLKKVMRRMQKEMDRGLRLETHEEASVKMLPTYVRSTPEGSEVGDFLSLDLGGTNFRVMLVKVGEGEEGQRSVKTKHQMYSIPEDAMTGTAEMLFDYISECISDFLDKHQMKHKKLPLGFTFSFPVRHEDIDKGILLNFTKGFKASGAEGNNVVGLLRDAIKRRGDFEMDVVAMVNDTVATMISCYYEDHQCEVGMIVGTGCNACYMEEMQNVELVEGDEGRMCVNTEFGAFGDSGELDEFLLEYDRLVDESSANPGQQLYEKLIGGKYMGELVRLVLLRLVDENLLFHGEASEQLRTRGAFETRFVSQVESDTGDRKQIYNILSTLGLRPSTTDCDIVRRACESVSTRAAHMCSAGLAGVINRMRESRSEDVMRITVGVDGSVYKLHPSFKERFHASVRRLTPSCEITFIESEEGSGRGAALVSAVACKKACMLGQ

T4: hGKRP (0.3 μM)–GK-W99R/W167F/W257F (1 μM) complex, GKRP-P446L (Homo sapiens, UniProt P35557+Q14397, P446L/W167F/W257F/W99R)
T4 construct: FLAG; GST (cleaved yes); made in house; host or cells: Escherichia coli
T4 sequence (Q14397 1-625 P446L): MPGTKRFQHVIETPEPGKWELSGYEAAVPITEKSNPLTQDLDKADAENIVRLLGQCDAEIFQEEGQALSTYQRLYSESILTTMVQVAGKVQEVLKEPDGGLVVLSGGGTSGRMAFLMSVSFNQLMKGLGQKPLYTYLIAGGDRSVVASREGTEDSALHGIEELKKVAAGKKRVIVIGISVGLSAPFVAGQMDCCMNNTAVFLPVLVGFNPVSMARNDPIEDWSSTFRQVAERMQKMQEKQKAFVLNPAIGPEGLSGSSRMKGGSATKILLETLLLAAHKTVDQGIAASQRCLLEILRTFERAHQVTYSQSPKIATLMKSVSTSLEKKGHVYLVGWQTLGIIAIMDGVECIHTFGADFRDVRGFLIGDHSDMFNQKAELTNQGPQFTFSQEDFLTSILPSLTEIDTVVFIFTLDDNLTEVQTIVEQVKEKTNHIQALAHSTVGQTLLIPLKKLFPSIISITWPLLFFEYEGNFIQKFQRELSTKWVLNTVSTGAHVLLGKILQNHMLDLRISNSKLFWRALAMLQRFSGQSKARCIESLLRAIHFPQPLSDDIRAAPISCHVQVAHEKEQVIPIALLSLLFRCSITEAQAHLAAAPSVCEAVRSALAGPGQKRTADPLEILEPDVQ
T4 sequence (P35557 1-465 W99R/W167F/W257F): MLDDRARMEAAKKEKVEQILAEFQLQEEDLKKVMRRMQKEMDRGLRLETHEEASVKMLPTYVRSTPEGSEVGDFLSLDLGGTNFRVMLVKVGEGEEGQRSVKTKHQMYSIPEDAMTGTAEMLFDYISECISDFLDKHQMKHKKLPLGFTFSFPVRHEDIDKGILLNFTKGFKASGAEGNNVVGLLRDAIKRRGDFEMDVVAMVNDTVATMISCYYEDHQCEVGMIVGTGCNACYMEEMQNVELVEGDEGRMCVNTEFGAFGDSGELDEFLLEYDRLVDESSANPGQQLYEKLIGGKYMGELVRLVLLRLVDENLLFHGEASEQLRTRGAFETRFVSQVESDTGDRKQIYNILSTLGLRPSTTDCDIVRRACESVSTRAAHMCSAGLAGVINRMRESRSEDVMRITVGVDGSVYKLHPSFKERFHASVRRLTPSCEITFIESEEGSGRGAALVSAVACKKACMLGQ


Experiments:
GKRP-WT = target: T1, GKRP-WT; test: Ligand binding to free GKRP-WT measured by TF of GKRP; details: ligand alone
GKRP-P446L = target: T2, GKRP-P446L; test: Ligand binding to free GKRP-P446L measured by TF of GKRP; details: ligand alone
[1] = target: T3, hGKRP (0.3 μM)–GK-W99R/W167F/W257F (1 μM) complex, GKRP-WT; test: Ligand binding by / disassembly of GKRP-WT–GK-W99R/W167F/W257F complex by TF of hGKRP; details: ligand titration of 3:1 GK–GKRP-WT complex, 20°C
Experimental: (§1) Spectra were measured with a Fluorolog-3-21 Jobin-Yvon Spex Instrument SA equipped with a 450 W Xenon lamp for excitation and a cooled R2658P Hamamatsu photomultiplier tube for detection. For all measurements, 90° geometry was employed and 295 nm excitation wavelengths were used to observe fluorescence emission in the 300–500 nm range. For TF, spectra slit width was set to provide a bandpath of 3 nm for excitation and 3 nm for emission. Spectra were corrected for instrumental response using Spex instrument software. A thermostatically controlled cell holder maintained sample temperature at 20°C. A thermocoupler was used to measure sample temperature. The buffer used contained 20 mM phosphate, 50 mM KCl, 1 mM EDTA and 1 mM DTT (pH 7.2).
(§2) Fluorescence data were obtained via the stepwise addition of the appropriate amount of non-fluorescent GK-W99R/W167F/W257F to GKRP in a fluorescence cuvette. […] The change in GKRP protein fluorescence during titration was also measured using time-dependent scans. A manual procedure was used such that a typical titration with 10–12 additions required 20–25 min to perform. The same buffer as described above was routinely used unless stated otherwise. The bandpath was 0.5 nm at 295 nm for excitation and 12 nm at 340 nm for emission. […] For some graphical presentations the linear form of the Hill equation was used: log[F/(Fsat−F)]=H log x−H log KD [46].

[2] = target: T4, hGKRP (0.3 μM)–GK-W99R/W167F/W257F (1 μM) complex, GKRP-P446L; test: Ligand binding by / disassembly of GKRP-P446L–GK-W99R/W167F/W257F complex by TF of hGKRP; details: ligand titration of 3:1 GK–GKRP-P446L complex, 20°C
Experimental: as §1, §2

[3] = Structural stability from urea denaturation curves (TF); type: physicochemical, human; details: buffer pH 7.2, 20°C; ±0.05

Row | H (Hill number) (GKRP-WT; 0.3 μM GKRP-WT, 20°C) | ΔF (relative fluorescence change at 340 nm) (GKRP-WT; 0.3 μM GKRP-WT, 20°C) | Kd (GKRP-WT; 0.3 μM GKRP-WT, 20°C, read-out: S0.5) [µM] | effect on the TF signal of GKRP-WT (GKRP-WT) | H (Hill number) (GKRP-P446L; 0.3 μM GKRP-P446L, 20°C) | ΔF (relative fluorescence change at 340 nm) (GKRP-P446L; 0.3 μM GKRP-P446L, 20°C) | Kd (GKRP-P446L; 0.3 μM GKRP-P446L, 20°C, read-out: S0.5) [µM] | effect on the TF signal of GKRP-P446L (GKRP-P446L) | H [1] | ΔF (relative fluorescence change at 340 nm) [1] | Kd ([1]; read-out: Kd (apparent)) [µM] | H [2] | ΔF (relative fluorescence change at 340 nm) ([2]; glucose curve biphasic (two phases)) | Kd ([2]; read-out: Kd (apparent)) [µM] | Molecule | ΔG(H2O) from urea denaturation curves [3] [kcal/mol]
1 | 1 | −0.04 | 65 | decrease | 1 | −0.08 | 139 | decrease | 1 | −0.086 | 127 | 1 | −0.095 | 298 | O=C(COP(=O)([O-])[O-])[C@@H](O)[C@H](O)[C@H](O)CO.[Na+].[Na+] [F1P, D-fructose 1-phosphate sodium salt] | 
2 |  |  |  |  |  |  |  |  |  |  |  |  |  |  | GKRP-WT: recombinant human wild-type GK regulatory protein (protein, left off: FLAG, end not stated, state not stated, recombinant human wild-type GK regulatory protein) MPGTKRFQHVIETPEPGKWELSGYEAAVPITEKSNPLTQDLDKADAENIVRLLGQCDAEIFQEEGQALSTYQRLYSESILTTMVQVAGKVQEVLKEPDGGLVVLSGGGTSGRMAFLMSVSFNQLMKGLGQKPLYTYLIAGGDRSVVASREGTEDSALHGIEELKKVAAGKKRVIVIGISVGLSAPFVAGQMDCCMNNTAVFLPVLVGFNPVSMARNDPIEDWSSTFRQVAERMQKMQEKQKAFVLNPAIGPEGLSGSSRMKGGSATKILLETLLLAAHKTVDQGIAASQRCLLEILRTFERAHQVTYSQSPKIATLMKSVSTSLEKKGHVYLVGWQTLGIIAIMDGVECIHTFGADFRDVRGFLIGDHSDMFNQKAELTNQGPQFTFSQEDFLTSILPSLTEIDTVVFIFTLDDNLTEVQTIVEQVKEKTNHIQALAHSTVGQTLPIPLKKLFPSIISITWPLLFFEYEGNFIQKFQRELSTKWVLNTVSTGAHVLLGKILQNHMLDLRISNSKLFWRALAMLQRFSGQSKARCIESLLRAIHFPQPLSDDIRAAPISCHVQVAHEKEQVIPIALLSLLFRCSITEAQAHLAAAPSVCEAVRSALAGPGQKRTADPLEILEPDVQ | 1.56
